Data from patent publication US20180318275A1, “COMBINATION THERAPY USING PI3K INHIBITOR AND MDM2 INHIBITOR” (Novartis AG, priority 2015, published 2018).

Legend:
Type in all cases: cell-based
LoVo = test: Cell proliferation (cell count by microscopy), Example 3; conditions: Homo sapiens, single agent, 96 h, cell count relative to DMSO
Experimental: (§1) COMPOUNDS A, B and C were dissolved in 100% DMSO (Sigma, Catalog number D2650) at concentrations of 20 mM and stored at −20° C. until use. Compounds were arrayed in drug master plates (Greiner, Catalog number 788876) and serially diluted 3-fold (7 steps) at 2000× concentration.
(§2) To test the effect of the combination of COMPOUND A, COMPOUND B, and COMPOUND C on cell proliferation cells were plated in black 384-well microplates with clear bottom (Matrix/Thermo Scientific, Catalog number 4332) in 50 μL media per well at cell densities between 500 and 1250 cells/well (Table 1 above) and allowed to incubate at 37 degrees, 5% CO2 for 24 h. After 24 h one 384-well plate per cell line was prepared for cell counting by microscopy (see below) without receiving treatment (=‘baseline’). The other cell plates were treated by transferring 25 nL of the 2000× compound from drug master plates using an ATS acoustic liquid dispenser (ECD Biosystems) and resulting in a final 1× concentration. COMPOUND A was used over a final concentration range of 13 nM-10 μM, COMPOUND B was used over a final concentration range of 13 nM-10 μM, and COMPOUND C was used over a final concentration range of 13 nM-10 μM (7 1:3 dilution steps). In order to assess the effect of the triple combination all individual COMPOUNDS (A, B, C), all three pair wise combinations (A+B, A+C, B+C), and the triple combination (A+B+C) were tested in the same experiment. Pair wise combinations and the triple combination were tested at a fixed ratio of 1:1 (for drug pairs) and 1:1:1 (for the drug triple) at each dilution resulting in 7 combination conditions per treatment. […] After compound addition 50 nL of 2 mM CellEvent Caspase-3/7 Green Detection Reagent (ThermoFisher, Catalog number C10423) were added to one of the three replicates using the HP D300 Digital Dispenser (Tecan). Caspase 3/7 induction was measured as a proxy for apoptosis induced by the treatments. Cells were treated for 72 h to 96 h depending on their doubling time (Table 1), and Caspase 3/7 activation was measured every 24 h by microscopy using an InCell Analyzer 2000 (GE Healthcare) equipped with a 4× objective and FITC excitation/emission filters. At the end of the treatment cells were prepared for cell counting by microscopy. Cells were fixed and permeabilised for 45 minutes in 4% PFA (Electron Microscopy Sciences, Catalog number 15714), 0.12% TX-100 (Electron Microscopy Sciences, Catalog number 22140) in PBS (Boston Bioproducts, Catalog number BM-220). After washing cells three times with PBS their DNA was stained for 30 minutes with Hoechst 33342 (ThermoFisher, Catalog number H3570) at a final concentration of 4 μg/mL. Cells were washed three times with PBS and then plates were heat-sealed using a PlateLoc (Agilent Technologies) with aluminum seals (Agilent Technologies, Catalog number 06644-001) and stored at 4° C. until imaging. All cells per well/treatment were captured in a single image by fluorescence microscopy using an InCell Analyzer 2000 (GE Healthcare) equipped with a 4× objective and DAPI excitation/emission filters.
(§3) Images were analyzed after adapting previously described methods (Horn, Sandmann et al. 2011, Nat. Methods 8(4): 341-346) and using the Bioconductor package EBImage in R (Pau, Fuchs et al. 2010, Bioinformatics 26(7):979-981). Objects in both channels, DAPI (for Hoechst/DNA) and FITC (for Caspase 3/7), were segmented separately by adaptive thresholding and counted. A threshold for Caspase 3/7 positive objects was defined manually per cell line after comparing negative controls (DMSO) and positive controls (Staurosporine). By analyzing 17 additional object/nuclei features in the DNA channel (shape and intensity features) debris/fragmented nuclei were identified. To this end per cell line the distributions of the additional features between positive controls (Staurosporine) and negative controls (DMSO) were compared manually. […]

HCT-116 = test: as above; conditions: Homo sapiens; HCT-116, single agent, 72 h, cell count relative to DMSO
Experimental: as §1, §2, §3

LS-180 = test: as above; conditions: Homo sapiens, LS180; LS-160 (so in the source), single agent, 72 h, cell count relative to DMSO
Experimental: as §1, §2, §3

RKO = test: as above; conditions: Homo sapiens, single agent, 72 h, cell count relative to DMSO
Experimental: as §1, §2, §3

GP2d = test: as above; conditions: single agent, 72 h, cell count relative to DMSO, unit (micromolar, top dose 10 μM)
Experimental: as §1, §2, §3

[1] = tested on: 5 TP53 wild type colorectal cancer cell lines; test: Cell proliferation over the cell line panel, Example 3; conditions: Example 3, panel of 5 lines, 13 nM-10 μM
Experimental: To test the effect of the combination of COMPOUND A, COMPOUND B, and COMPOUND C on cell proliferation cells were plated in black 384-well microplates with clear bottom (Matrix/Thermo Scientific, Catalog number 4332) in 50 μL media per well at cell densities between 500 and 1250 cells/well (Table 1 above) and allowed to incubate at 37 degrees, 5% CO2 for 24 h. After 24 h one 384-well plate per cell line was prepared for cell counting by microscopy (see below) without receiving treatment (=‘baseline’). The other cell plates were treated by transferring 25 nL of the 2000× compound from drug master plates using an ATS acoustic liquid dispenser (ECD Biosystems) and resulting in a final 1× concentration. COMPOUND A was used over a final concentration range of 13 nM-10 μM, COMPOUND B was used over a final concentration range of 13 nM-10 μM, and COMPOUND C was used over a final concentration range of 13 nM-10 μM (7 1:3 dilution steps). In order to assess the effect of the triple combination all individual COMPOUNDS (A, B, C), all three pair wise combinations (A+B, A+C, B+C), and the triple combination (A+B+C) were tested in the same experiment. […] Caspase 3/7 induction was measured as a proxy for apoptosis induced by the treatments. Cells were treated for 72 h to 96 h depending on their doubling time (Table 1), and Caspase 3/7 activation was measured every 24 h by microscopy using an InCell Analyzer 2000 (GE Healthcare) equipped with a 4× objective and FITC excitation/emission filters. […] All cells per well/treatment were captured in a single image by fluorescence microscopy using an InCell Analyzer 2000 (GE Healthcare) equipped with a 4× objective and DAPI excitation/emission filters.
Images were analyzed after adapting previously described methods (Horn, Sandmann et al. 2011, Nat. Methods 8(4): 341-346) and using the Bioconductor package EBImage in R (Pau, Fuchs et al. 2010, Bioinformatics 26(7):979-981). Objects in both channels, DAPI (for Hoechst/DNA) and FITC (for Caspase 3/7), were segmented separately by adaptive thresholding and counted. […]

For `CC1(C)CCC(c2ccc(Cl)cc2)=C(CN2CCN(c3ccc(C(=O)NS(=O)(=O)c4ccc(N[C@H](CCN5CCOCC5)CSc5ccccc5)c(S(=O)(=O)C(F)(F)F)c4)cc3)CC2)C1` [COMPOUND C, 4-[4-[[2-(4-Chlorophenyl)-5,5-dimethyl-1-cyclohexen-1-yl]methyl]-1-piperazinyl]-N-[[4-[[(1R)-3-(4-morpholinyl)-1-[(phenylthio)methyl]propyl]amino]-3-[(trifluoromethyl)sulfonyl]phenyl]sulfonyl]benzamide, reference compound], the IC50 (LoVo) was over 10 µM, the IC50 (HCT-116) was over 10 µM and the IC50 (LS-180) was over 10 µM. The IC50 (RKO) was over 10 µM, the IC50 (GP2d) was over 10 µM and the “Single agent growth inhibition, in words” value [1] was “no single agent efficacy”.
